Patent publication US11685744B2, “CDK inhibitors and their use as pharmaceuticals” (Prelude Therapeutics, Incorporated, priority 2020, dated 2023)

Columns and labels:
[1] = target: CDK4/Cyclin D1 (Homo sapiens (Human), UniProt P11802); experiment: CDK4/CyclinD1 enzymatic activity assay (TR-FRET); type: biochemical; settings: ATP 2 mM, read-out: CDK4_D1 IC50
Experimental: CDK4/CyclinD1 Enzymatic Activity Assay
The inhibitory activity of compounds was evaluated in vitro using TR-FRET assay with white 384-well low volume microplate (Greiner Bio-One). CDK4/Cyclin D1 catalyzed phosphorylation of peptide in the presence and absence of compounds was measured. IC50 determination. Recombinant protein complex CDK4/Cyclin D1, expressed from insect cell, was purchased from ProQinase. Testing compounds were dissolved in DMSO at 0.1 mM and tested in 9-dose IC50 mode. The reaction mixture was prepared by mixing CDK4/CyclinD1 (1 nM final), ULight-4E-BP1 (100 nM final, Perkinelmer, TRF0128-D), and ATP (2 mM final) in assay buffer (20 mM of HEPES pH 7.4, 1 mM of EGTA, 0.05% BSA, 0.005% Tween 20, and 1 mM TCEP). The compound of interest in DMSO was added to each well in 3-fold serial dilution by dispenser (TECAN D300E). After 20 minutes preincubation at room temperature, MgCl2 (10 mM final) was added to initiate the reaction. Following a 60 minutes incubation at 37° C., the reaction was stopped by addition of 2 μL of quenching buffer consisting of Lance detection buffer (Perkinelmer CR97-100C), 2 nM LANCE Ultra Europium-anti-P-4E-BP1 (Perkinelmer, TRF0216-D), 10 mM EDTA, and incubate at room temperature for additional 60 minutes in dark. The reaction signal was measured by Envision multimode plate reader (PerkinElmer, 2102-0010). IC50 values were determined by fitting the data to the standard 4 parameters with Hill Slope using GraphPad Prism software.

[2] = test system: MCF7 adenocarcinoma cell line; experiment: Cell proliferation studies in MCF7 cells (ATP-Lite, 10 days); type: cell-based; settings: Homo sapiens, 240 h, read-out: PROLIFERATION_CTG_MCF7 IC50
Experimental: Cell Proliferation Studies in MCF7 Cells
Cell proliferation studies were conducted in MCF7 adenocarcinoma cell line. Cells were maintained in DMEM (Coming, Catalog #: 10-013-CV) supplemented with 10% v/v FBS (Gibco, Catalog #: 26140-079), 1% v/v Penicillin Streptomycin (Gibco, Catalog #15140-122) Cells were seeded in 384-well plates at a density of 100 or 200 cells/well. Compounds dissolved in DMSO were plated in quadruplicate using a digital dispenser (D300E, Tecan) and tested on a 9-point 3-fold serial dilution. Cells were incubated for 10 days in a 37° C. active humidified incubator at 5% CO2. A media exchange and second compound addition were performed on day 5. Cell viability was measured using the ATP-Lite 1-Step Luminescence reagent (Perkin Elmer, Catalog #: 6016731) as per manufacturer's instructions. Luminescence signal was measured with a multimode plate reader (Envision 2105, Perkin Elmer). Raw data files were imported to Dotmatics Screening Ultra for IC50 analysis. Luminescence values were normalized to both background and DMSO controls to obtain a percentage of viable cells relative to DMSO vehicle control.

CDK4/Cyclin D1, sequence (P11802 whole entry): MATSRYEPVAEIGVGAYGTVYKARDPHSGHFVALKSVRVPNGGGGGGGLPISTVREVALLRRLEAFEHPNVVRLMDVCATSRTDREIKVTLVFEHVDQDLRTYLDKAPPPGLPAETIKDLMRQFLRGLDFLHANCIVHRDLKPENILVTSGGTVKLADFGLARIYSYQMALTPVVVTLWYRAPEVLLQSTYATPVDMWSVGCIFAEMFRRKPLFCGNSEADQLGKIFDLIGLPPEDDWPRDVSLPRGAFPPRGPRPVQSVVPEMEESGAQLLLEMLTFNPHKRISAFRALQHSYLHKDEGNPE
CDK4/Cyclin D1, sequence (P24385 whole entry partner): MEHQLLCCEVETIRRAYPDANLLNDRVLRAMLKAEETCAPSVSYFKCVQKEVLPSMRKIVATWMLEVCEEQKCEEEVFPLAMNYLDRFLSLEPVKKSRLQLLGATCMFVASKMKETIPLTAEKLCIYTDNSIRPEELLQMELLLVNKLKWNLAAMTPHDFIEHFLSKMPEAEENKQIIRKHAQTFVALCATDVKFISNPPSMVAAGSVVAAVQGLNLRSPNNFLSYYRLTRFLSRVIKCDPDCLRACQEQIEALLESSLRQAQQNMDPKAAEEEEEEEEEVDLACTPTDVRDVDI

SMILES | IC50 [1] [nM] | IC50 [2] [nM]
CCN1CCN(c2ccc(Nc3ncc(F)c(-c4sc5c(C6CCCC6)ccnc5c4Cl)n3)nc2)CC1 [Example 16, 4-(3-Chloro-7-cyclopentylthieno[3,2-b]pyridin-2-yl)-N-[5-(4-ethylpiperazin-1-yl)pyridin-2-yl]-5-fluoropyrimidin-2-amine] | ≤ 20 | 20 to 200
CCN1CCN(Cc2ccc(Nc3ncc(F)c(-c4cc5nccc(C(C)C)c5s4)n3)nc2)CC1 [Example 19, N-[5-[(4-Ethylpiperazin-1-yl)methyl]pyridin-2-yl]-5-fluoro-4-(7-propan-2-ylthieno[3,2-b]pyridin-2-yl)pyrimidin-2-amine] | 20 to 200 | 200 to 2000
CCN1CCC(c2ccc(Nc3ncc(F)c(-c4sc5c(C6CCCC6)ccnc5c4Cl)n3)nc2)CC1 [Example 20, 4-(3-Chloro-7-cyclopentylthieno[3,2-b]pyridin-2-yl)-N-[5-(1-ethylpiperidin-4-yl)pyridin-2-yl]-5-fluoropyrimidin-2-amine] | ≤ 20 | 20 to 200
CCN1CCN(Cc2ccc(Nc3ncc(F)c(-c4sc5c(C6CCCC6)ccnc5c4C)n3)nc2)CC1 [Example 22, 4-(7-Cyclopentyl-3-methylthieno[3,2-b]pyridin-2-yl)-N-(5-((4-ethylpiperazin-1-yl)methyl)pyridin-2-yl)-5-fluoropyrimidin-2-amine] | 20 to 200 | 200 to 2000
CCN1CCN(Cc2ccc(Nc3ncc(F)c(-c4cc5nccc(C(C)(O)C(F)(F)F)c5s4)n3)nc2)CC1 (stereo not drawn) [Example 25, 2-[2-[2-[[5-[(4-Ethylpiperazin-1-yl)methyl]pyridin-2-yl]amino]-5-fluoropyrimidin-4-yl]thieno[3,2-b]pyridin-7-yl]-1,1,1-trifluoropropan-2-ol] | 20 to 200 | 20 to 200
CCN1CCN(Cc2ccc(Nc3ncc(F)c(-c4cc5nccc(C(C)(C)O)c5s4)n3)nc2)CC1 [Example 27, 2-[2-[2-[[5-[(4-Ethylpiperazin-1-yl)methyl]pyridin-2-yl]amino]-5-fluoropyrimidin-4-yl]thieno[3,2-b]pyridin-7-yl]propan-2-ol] | 20 to 200 | 200 to 2000
Cc1c(-c2nc(Nc3ccc(N4CCN(C)CC4)cn3)ncc2F)sc2c(C3CCCC3)ccnc12 [Example 28, 4-(7-Cyclopentyl-3-methylthieno[3,2-b]pyridin-2-yl)-5-fluoro-N-(5-(4-methylpiperazin-1-yl)pyridin-2-yl)pyrimidin-2-amine] | 20 to 200 | 200 to 2000
CCN1CCN(c2ccc(Nc3ncc(F)c(-c4cc5nccc(C(C)(O)C(F)(F)F)c5s4)n3)nc2)CC1 (stereo not drawn) [Example 29, 2-[2-[2-[[5-(4-Ethylpiperazin-1-yl)pyridin-2-yl]amino]-5-fluoropyrimidin-4-yl]thieno[3,2-b]pyridin-7-yl]-1,1,1-trifluoropropan-2-ol] | 20 to 200 | 20 to 200
CN1CCN(c2ccc(Nc3ncc(F)c(-c4cc5nccc(C6CCCC6)c5s4)n3)nc2)CC1 [Example 37, 4-(7-Cyclopentylthieno[3,2-b]pyridin-2-yl)-5-fluoro-N-[5-(4-methylpiperazin-1-yl)pyridin-2-yl]pyrimidin-2-amine] | 20 to 200 | 200 to 2000
COC1CCN(c2ccc(Nc3ncc(F)c(-c4cc5nccc(C6CCCC6)c5s4)n3)nc2)CC1 [Example 39, 4-(7-Cyclopentylthieno[3,2-b]pyridin-2-yl)-5-fluoro-N-[5-(4-methoxypiperidin-1-yl)pyridin-2-yl]pyrimidin-2-amine] | 20 to 200 | 200 to 2000
Fc1cnc(Nc2ccc(N3CCC(F)(F)C3)cn2)nc1-c1cc2nccc(C3CCCC3)c2s1 [Example 41, 4-(7-Cyclopentylthieno[3,2-b]pyridin-2-yl)-N-[5-(3,3-difluoropyrrolidin-1-yl)pyridin-2-yl]-5-fluoropyrimidin-2-amine] | 200 to 2000 | > 2000
Fc1cnc(Nc2ccc(N3CCOCC3)cn2)nc1-c1cc2c(C3CCCC3)ccnc2s1 [Example 42, 4-(4-Cyclopentylthieno[2,3-b]pyridin-2-yl)-5-fluoro-N-(5-morpholin-4-ylpyridin-2-yl)pyrimidin-2-amine] | 200 to 2000 | > 2000

The next lines start with the values.

IC50 [1] [nM] | IC50 [2] [nM] | SMILES
≤ 20 | 20 to 200 | Cc1nc2cc(-c3nc(Nc4ccc(N5CCN(C)CC5)cn4)ncc3F)sc2n1C1CCCC1 [Example 13, 4-(3-Cyclopentyl-2-methyl-3H-thieno[2,3-d]imidazol-5-yl)-5-fluoro-N-(5-(4-methylpiperazin-1-yl)pyridin-2-yl)pyrimidin-2-amine]
≤ 20 | 20 to 200 | CCN1CCN(c2ccc(Nc3ncc(F)c(-c4cc5nccc(C(C)C)c5s4)n3)nc2)CC1 [Example 14, N-[5-(4-Ethylpiperazin-1-yl)pyridin-2-yl]-5-fluoro-4-(7-propan-2-ylthieno[3,2-b]pyridin-2-yl)pyrimidin-2-amine]
20 to 200 | 20 to 200 | CCN1CC2(C1)CN(c1ccc(Nc3ncc(F)c(-c4cc5nccc(C(C)(O)C(F)(F)F)c5s4)n3)nc1)C2 (stereo not drawn) [Example 18, 2-[2-[2-[[5-(6-Ethyl-2,6-diazaspiro[3.3]heptan-2-yl)pyridin-2-yl]amino]-5-fluoropyrimidin-4-yl]thieno[3,2-b]pyridin-7-yl]-1,1,1-trifluoropropan-2-ol]
20 to 200 | 200 to 2000 | CCN1CCN(c2ccc(Nc3ncc(F)c(-c4cc5nccc(C6CCCC6)c5s4)n3)nc2)CC1 [Example 24, 4-(7-Cyclopentylthieno[3,2-b]pyridin-2-yl)-N-[5-(4-ethylpiperazin-1-yl)pyridin-2-yl]-5-fluoropyrimidin-2-amine]
≤ 20 | 20 to 200 | Cc1c(-c2nc(Nc3ccc(C4CCN(C)CC4)cn3)ncc2F)sc2c(C3CCCC3)ccnc12 [Example 26, 4-(7-Cyclopentyl-3-methylthieno[3,2-b]pyridin-2-yl)-5-fluoro-N-(5-(1-methylpiperidin-4-yl)pyridin-2-yl)pyrimidin-2-amine]
20 to 200 | 200 to 2000 | CCN1CCN(c2ccc(Nc3ncc(F)c(-c4sc5c(C6CCCC6)ccnc5c4C)n3)nc2)CC1 [Example 31, 4-(7-Cyclopentyl-3-methylthieno[3,2-b]pyridin-2-yl)-N-(5-(4-ethylpiperazin-1-yl)pyridin-2-yl)-5-fluoropyrimidin-2-amine]
≤ 20 | 200 to 2000 | Cc1c(-c2nc(Nc3ccc(N4CC5(CNC5)C4)cn3)ncc2F)sc2c(C3CCCC3)ccnc12 [Example 32, N-(5-(2,6-Diazaspiro[3.3]heptan-2-yl)pyridin-2-yl)-4-(7-cyclopentyl-3-methylthieno[3,2-b]pyridin-2-yl)-5-fluoropyrimidin-2-amine]
≤ 20 | 200 to 2000 | CCN1CCN(Cc2ccc(Nc3ncc(F)c(-c4cc5nccc(C6CCCC6)c5s4)n3)nc2)CC1 [Example 33, 4-(7-Cyclopentylthieno[3,2-b]pyridin-2-yl)-N-[5-[(4-ethylpiperazin-1-yl)methyl]pyridin-2-yl]-5-fluoropyrimidin-2-amine]
≤ 20 | 20 to 200 | CN1CCC(c2ccc(Nc3ncc(F)c(-c4cc5nccc(C6CCCC6)c5s4)n3)nc2)CC1 [Example 34, 4-(7-Cyclopentylthieno[3,2-b]pyridin-2-yl)-5-fluoro-N-(5-(1-methylpiperidin-4-yl)pyridin-2-yl)pyrimidin-2-amine]
20 to 200 | 200 to 2000 | Fc1cnc(Nc2ccc(N3CCNCC3)cn2)nc1-c1cc2nccc(C3CCCC3)c2s1 [Example 36, 4-(7-Cyclopentylthieno[3,2-b]pyridin-2-yl)-5-fluoro-N-(5-piperazin-1-ylpyridin-2-yl)pyrimidin-2-amine]
20 to 200 | > 2000 | Cc1c(-c2nc(Nc3ccc(N4CCOCC4)cn3)ncc2F)sc2c(C3CCCC3)ccnc12 [Example 38, 4-(7-Cyclopentyl-3-methylthieno[3,2-b]pyridin-2-yl)-5-fluoro-N-(5-morpholinopyridin-2-yl)pyrimidin-2-amine]
20 to 200 | > 2000 | Fc1cnc(Nc2ccc(N3CCOCC3)cn2)nc1-c1cc2nccc(C3CCCC3)c2s1 [Example 40, 4-(7-Cyclopentylthieno[3,2-b]pyridin-2-yl)-5-fluoro-N-(5-morpholinopyridin-2-yl)pyrimidin-2-amine]
